Test results published in publication PMC6095626, “Screening of the Pathogen Box for inhibitors with dual efficacy against Giardia lamblia and Cryptosporidium parvum” (PLoS Neglected Tropical Diseases, 2018).
Several values for one entry are separate records, joined by “and”; a condition that tells them apart may be missing. Identical values can stand only once. Like-named read-outs stand apart in the source and are kept apart here. Marks after values point to notes of the source that are not given here.

What was measured:
[1] = Cytotoxicity against HepG2 cells, AlamarBlue viability assay, 48 hours; format: cell-based, human; conditions: human, HepG2 cells, read-out: HepG2 CC50 (this study)
Text: (§1) Mammalian cell cytotoxicity assay data performed on HepG2 (human hepatocellular carcinoma) cells and described as CC20 or CC50 values are provided in supporting documentation that accompanied the Pathogen Box for approximately three quarters of the 400 compounds. However, no details of the assay conditions or parameters were provided. In this study, selected compounds were further tested for cytotoxicity against HepG2 cells as previously described. Briefly, cells were exposed to two-fold serial dilutions of compounds for 48 hours and cytotoxicity was assessed using the AlamarBlue® viability assay (Thermo Fisher Scientific, Waltham, MA). Each dilution was assayed in quadruplicate and concentrations causing 50% growth inhibition (CC50) were calculated by non-linear regression using GraphPad Prism 7 software (GraphPad Software, San Diego, CA).

HepG2 cells [2] = conditions: cited from earlier work; for HepG2 CC20 (literature values): CC20 (footnote ^); for CC50: read-out: HepG2 CC50 (literature values)
G. lamblia = conditions: read-out: G. lamblia EC50 (literature), cited from earlier work
[3] = system: G. lamblia trophozoites (luciferase expressing, WBC6); assay: microbe, parasite or virus in culture; format: cell-based, Giardia lamblia; conditions: for EC50: read-out: G. lamblia EC50; for inhibition at 16 µM: read-out: Giardia (16 uM) Mean % inhibition; for Giardia (16 uM) Mean % inhibition: initial Pathogen Box screen, single concentration 16 µM, inhibition compared to DMSO wells
Procedure, shortened: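 Incubation ran 24 h at 37 °C under anaerobic conditions, with compound added in equal volume to trophozoites (WBC6, luciferase-expressing, 250,000 cells/mL). Bioluminescence was the read-out, cross-checked by MOXI Z counts on a duplicate plate; metronidazole served as control (1:2 dilutions from 40 μM).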

[4] = system: C. parvum (UGA1 Nluc expressing strain in HCT-8 cells); assay: microbe, parasite or virus in culture; format: cell-based, Cryptosporidium parvum; conditions: for Crypto (10 uM) Mean % inhibition: initial Pathogen Box screen, single concentration 10 µM, inhibition compared to DMSO wells; for C. parvum cell growth inhibition in the initial screen: 10 μM
Procedure, shortened: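 Parasite growth quantified by NanoLuc luminescence from lysed infected HCT-8 cells, with EC50 fitted from dose curves. Compounds, single-dose 10 μM or serially diluted, were added to confluent 48 h monolayers before infection with bleached UGA1 Nluc oocysts.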

HepG2 cells [5] = assay: Cytotoxicity against HepG2 cells, AlamarBlue viability assay, 48 hours; format: cell-based, human; conditions: read-out: HepG2 CC50 (this study)
Text: as §1

C. parvum = conditions: cited from earlier work
G. lamblia trophozoites = assay: G. lamblia growth inhibition counted with MOXI Z Mini Automated Cell Counter; format: cell-based; conditions: Giardia duodenalis, 24 h, read-out: G. lamblia EC50 by MOXI coulter counter
Experimental: Preliminary effective concentration that causes 50% growth inhibition (EC50) assays were performed on the luciferase expressing and wild-type (control) G. lamblia cells to establish a correlation between manually counted cells and the bioluminescent signal read out. Trophozoites were harvested by chilling cultures on ice for 30 minutes and plated by adding 150 μL per well at a concentration of 250,000 cells/mL. Metronidazole (Sigma, St. Louis, MO) was used as a control and was serially diluted 1:2 from 40 μM to 0.04 μM and 150 μL was added to the 150 μL of the G. lamblia trophozoites. Plates were covered in plastic low-evaporation lids, sealed in individual anaerobic BD GasPak Bio-Bags (Becton Dickinson, San Jose, CA) and incubated at 37 °C for 24 hours. Plates were then iced for 30 minutes and 250 μL of resuspended cells were transferred to a solid white 96-well plate and 50 μL of 10 mg/mL D-luciferin was added to a final reaction concentration of 1.67 mg/mL. Plates were incubated on a plate shaker at 37 °C for 30 minutes and read on an EnVision Plate Reader. A duplicate plate was concurrently set up and assayed using a MOXI Z Mini Automated Cell Counter Kit (Orflo, Ketchum, ID). Results obtained from the bioluminescence assay and the MOXI counter data were compared to evaluate their correlation to each another. […]

[6] = ref Pathogen_Box_Activity_Biological_Data_ Structure & Smiles (https://www.pathogenbox.org/about-pathogen-box/composition)
[7] = Cryptosporidium parvum, HCT-8, read-out: Crypto (10 uM) Mean % inhibition
[8] = Cryptosporidium parvum, HCT-8, 48 h, read-out: C. parvum EC50, Nluc C. parvum in HCT-8 cells, 48 hours
[9] = luciferase expressing G. lamblia trophozoites, 24 hours, D-luciferin bioluminescence read-out
[10] = Nluc C. parvum in HCT-8 cells, 48 hours, read-out: C. parvum EC50
[11] = IOWA strain (48h), read-out: C. parvum EC50 (literature)

SMILES | EC50 ([3]; Giardia duodenalis, 24 h) [µM] | CC50 (HepG2 cells [5]) [µM] | CC50 (HepG2 cells [2]; [6]) [µM] | Giardia (16 uM) Mean % inhibition [3] [%] | EC50 [3, 9] [µM] | Crypto (10 uM) Mean % inhibition [4] | other results
CC1CS(=O)(=O)CCN1/N=C/c1ccc([N+](=O)[O-])o1 (stereo not shown) [MMV001499, Nifurtimox, reference compound] | 0.64 ± 0.12 |  |  |  |  |  | CC50 at 48 h [1]: > 40 µM; HepG2 CC20 (literature values) (HepG2 cells [2]; [6]): >80 ^* ^^ μM; EC50 (G. lamblia; reference strain WB (48h)): 0.37 µM; inhibition at 16 µM ([3]; Giardia duodenalis): 97%; inhibition at 10 µM [4, 7]: < 0%
Oc1c(I)cc(I)c2cccnc12 [MMV002817, Iodoquinol, reference compound] | 2.52 ± 0.45 |  |  |  |  |  | CC50 at 48 h [1]: ~40 µM; HepG2 CC20 (literature values) (HepG2 cells [2]; [6]): 2.50 ^* ^^ μM; inhibition at 16 µM ([3]; Giardia duodenalis): 82%; EC50 [4, 8]: 0.48 ± 0.2 µM; inhibition at 10 µM ([4]; Cryptosporidium parvum, HCT-8, 48 h, read-out: C. parvum cell growth inhibition in the initial screen): ≥ 95%; inhibition at 10 µM [4, 7]: 95%
COc1cc(-c2cc(-c3ccc(S(C)(=O)=O)cc3)cnc2N)ccc1O [MMV010576] |  | > 40 | > 10 | 94 | 1.9 ± 0.28 | 87% | EC50 [4, 10]: 3 µM and 2.99 µM
O=C(Nc1ccc(N2CCNCC2)cc1)c1ccn2ncc(-c3cccc(Cl)c3)c2n1 [MMV022478] |  | > 40 | > 10 | 98 | 2.41 ± 0.12 | X* (Mean or standard deviation are negative but not significantly different from the control to be a growth promoter) | 
OCCc1ccc(Nc2nccc(-c3nnc4ccccn34)n2)cc1 [MMV028694] |  | 15.9 | 8.1 | 99 | 3.88 ± 1.27 | 85% | EC50 [4, 10]: 1.56 ± 0.5 µM
CC(C)(C)c1cnc(NC(=O)c2ccccc2O)s1 [MMV495543] |  | > 40 | 47.6 | 97 | 2.77 ± 0.21 | 51% | 
CC(C)C(Oc1cccc2ccccc12)C(=O)O (stereo not shown) [MMV676191] |  |  |  | 9 |  |  | EC50 (C. parvum; ref MMV Pathogen_Box_Activity_Biological_Data_Smiles (https://www.pathogenbox.org/about-pathogen-box/composition), read-out: C. parvum EC50 reported in Pathogen Box datasheet): > 10 µM; C. parvum cell growth inhibition in the initial screen ([4]; 48 hours): 36%
O=C(Nc1cccnc1)c1c(O)c2cccc3c2n(c1=O)CC3 [MMV676395] |  | > 40 | > 100 | 98 | 1.57 ± 0.2 | 85% | C. parvum EC50 ([4]; Nluc C. parvum in HCT-8 cells, 48 hours): not potent
O=C(Nc1nnc(-c2ccc(Cl)s2)o1)c1ccc(Cl)s1 [MMV676501] |  | > 40 | 50.1 | 78 | 1.4 ± 0.2 | 93% | EC50 [4, 10]: 4.96 ± 1.8 µM
CC(C)/N=c1\cc2n(-c3ccc(Cl)cc3)c3ccccc3nc-2cc1Nc1ccc(Cl)cc1 [MMV687800, Clofazimine, reference compound] | 1.79 ± 0.23 |  |  |  |  |  | EC50 (C. parvum; [11]): 0.015 µM; CC50 at 48 h [1]: 26.4 µM; CC50 (HepG2 cells [2]): > 20 µM; inhibition at 16 µM ([3]; Giardia duodenalis): 98%; EC50 [4, 8]: 3.3 µM; inhibition at 10 µM [4, 7]: 82%; EC50 ([4]; read-out: C. parvum EC50, Nluc C. parvum in HCT-8 cells, 48 hours): 3.33 ± 1.2 µM
CN1CCN(CCCOc2ncc(Nc3ncc(-c4ccc(C(F)(F)F)c(F)c4)nc3C(N)=O)cn2)CC1 [MMV687812] |  | 5.33 | 3.9 | 98 | 1.25 ± 0.12 | 66% | 
C[C@]1(COc2ccc(N3CCC(Oc4ccc(OC(F)(F)F)cc4)CC3)cc2)Cn2cc([N+](=O)[O-])nc2O1 [MMV688262, Delamanid, reference compound] | 0.55 ± 0.04 |  | 72.5 |  |  |  | CC50 at 48 h [1]: > 40 µM; inhibition at 16 µM ([3]; Giardia duodenalis): 97%; inhibition at 10 µM [4, 7]: < 0%
O=[N+]([O-])c1cn2c(n1)OC[C@@H](OCc1ccc(OC(F)(F)F)cc1)C2 [MMV688755] |  | > 40 | > 50 | 99 | 1.57 ± 0.38 | 17% | 
COc1ccc2nccc(NC(=O)C3CCN(CCc4ccc(Cl)cc4)CC3)c2n1 [MMV688844] |  | > 40 | > 50 | 98 | 2.3 ± 0.43 | X* (Mean or standard deviation are negative but not significantly different from the control to be a growth promoter) | 
CCOc1ccc2cc(-c3nn(CC4CCN(C)CC4)c4ncnc(N)c34)ccc2c1 [MMV688854, reference compound] |  |  |  | 9 |  |  | EC50 (C. parvum; same strain of Nluc C. parvum, read-out: C. parvum EC50 (previously shown)): 2.7 µM; C. parvum cell growth inhibition in the initial screen ([4]; 48 hours): 79%
CC(=O)OCC1OC([S-])C(OC(C)=O)C(OC(C)=O)C1OC(C)=O.CCP(CC)CC.[Au+] (stereo not shown) [MMV688978, Auranofin, reference compound] |  | 0.5 |  | 98 | 3.74 ± 0.46 | 93% | EC50 (C. parvum; [11]): 2 µM; CC50 (HepG2 cells [2]): 4.5 µM; EC50 (G. lamblia; WB strain (48h)): 4 to 6 µM; EC50 [4, 10]: 3.34 ± 2.7 µM
CC(=O)Oc1ccccc1C(=O)Nc1ncc([N+](=O)[O-])s1 [MMV688991, Nitazoxanide, reference compound] | 0.8 ± 0.1 |  |  |  |  |  | CC50 at 48 h [1]: 10.7 µM; HepG2 CC20 (literature values) (HepG2 cells [2]; [6]): 6.35 ^* ^^ μM; EC50 (G. lamblia; WB strain (48h)): 0.8 µM; EC50 (G. lamblia; reference strain WB (48h)): 0.61 µM; inhibition at 16 µM ([3]; Giardia duodenalis): 97%; EC50 [4, 8]: 3.1 ± 0.4 µM; inhibition at 10 µM [4, 7]: 92%
CCCSc1ccc2nc(NC(=O)OC)[nH]c2c1 [albendazole, Albendazole, reference compound] | 0.41 |  |  |  |  |  | EC50 (G. lamblia; reference strain WB (48h)): 0.23 µM
Cc1ncc([N+](=O)[O-])n1CCO [metronidazole, Metronidazole] | 2.24 |  |  |  |  |  | EC50 (G. lamblia): ~5 µM; EC50 (G. lamblia; reference strain WB (48h)): 8.65 µM; EC50 (G. lamblia trophozoites): 1.06 µM
